Structures can show the parent of a compound that is named as a salt. Where two headings read alike, the source gives them in different places.

This passage reports remaining activity results from PMC8286840, “Identifying SARS-CoV-2 antiviral compounds by screening for small molecule inhibitors of Nsp3 papain-like protease” (Biochemical Journal, 2021).

The target in test [1] is T1, SARS-CoV-2 PLpro (nsp3 1564–1878) (Severe acute respiratory syndrome coronavirus 2, UniProt P0DTD1). In words: biochemical. Details: FRET-quenched peptide (Pro3) cleavage by PLpro, 10 min pre-incubation, slope over 20 min, normalised to no-compound control. The settings on record: high concentration screen, read-out: % of control remaining.
In test [2] the target is T1, SARS-CoV-2 PLpro (nsp3 1564–1878). Put plainly: biochemical. Further details: FRET-quenched peptide (Pro3) cleavage by PLpro, 10 min pre-incubation, slope over 20 min, normalised to no-compound control. As to conditions: low concentration screen, read-out: % of control remaining.

Consider `CCCCC/C=C\C[C@@H](/C=C/C=C\C/C=C\CCCC(=O)O)OO` [12(S)-HPETE], for which the remaining activity at 3.75 µM in test [1] (Well no.=4329) came to 103%. Besides, the remaining activity at 1.25 µM in test [2] (Well no.=4329) amounted to 110%.

For the compound `COc1ccc(C[C@H](NC(=O)[C@H](C)NC(=O)CN2CCOCC2)C(=O)N[C@@H](Cc2ccccc2)C(=O)[C@@]2(C)CO2)cc1` [ONX-0914 (PR-957)], the remaining activity at 3.75 µM in test [1] (Well no.=9126) worked out at 93.6%. Moreover, in test [2] (Well no.=9126), the remaining activity at 1.25 µM amounted to 90%.

`CCOc1ccc2ccccc2c1C(=O)N[C@@H]1C(=O)N2[C@@H]1SC(C)(C)[C@@H]2C(=O)O` [Nafcillin Sodium]: in test [1] (Well no.=4690), the remaining activity at 3.75 µM is 101%. In test [2] (Well no.=4690), the remaining activity at 1.25 µM was 104%.

Regarding `O=c1c(O)c(-c2cc(O)c(O)c(O)c2)oc2cc(O)cc(O)c12` [Myricetin], the figures for the remaining activity at 3.75 µM in test [1] (Well no.=838), in test [1] (Well no.=3324) and in test [1] (Well no.=6244) were 102%, 108% and 96.9%, respectively. Further, the remaining activity at 1.25 µM in test [2] (Well no.=838) was found to be 101%; in test [2] (Well no.=3324), 103%; in test [2] (Well no.=6244), 96.2%.

Take `Cn1cc(-c2ccncc2)c(-c2ccc(OCc3ccc4ccccc4n3)cc2)n1` [PF-2545920]: the remaining activity at 3.75 µM in test [1] (Well no.=8150) worked out at 95.7%. The remaining activity at 1.25 µM in test [2] (Well no.=8150) worked out at 101%.

As for `CN1CCC(=C2c3ccccc3CCc3cccnc32)CC1` [Azatadine dimaleate], the remaining activity at 3.75 µM in test [1] (Well no.=5036) was found to be 102%. Besides, in test [2] (Well no.=5036), the remaining activity at 1.25 µM was 99%.

On to `COc1cc2c(cc1OC)-c1cc3ccc(OC)c(OC)c3c[n+]1CC2` [Palmatine chloride], for which, in test [1] (Well no.=3641), the remaining activity at 3.75 µM was 99.2%. In addition, the remaining activity at 1.25 µM in test [2] (Well no.=3641) was 101%.

Consider `O=c1oc(Cl)c(Cl)c2ccccc12` [3,4-Dichloroisocoumarin], for which the remaining activity at 3.75 µM in test [1] (Well no.=582) is 103%. Further, the remaining activity at 1.25 µM in test [2] (Well no.=582) came to 100%.

With `N#CC(C#N)=C(N)/C(C#N)=C/c1ccc(O)cc1` [Tyrphostin AG 112], the remaining activity at 3.75 µM in test [1] (Well no.=1245) amounted to 95.9%. In addition, the remaining activity at 1.25 µM in test [2] (Well no.=1245) worked out at 95.9%.

As to `CCCCCCCCCCCCCCCC(=O)N[C@H](CN1CCOCC1)[C@H](O)c1ccccc1` (racemic) [DL-PPMP], in test [1] (Well no.=4591), the remaining activity at 3.75 µM was 100%. The remaining activity at 1.25 µM in test [2] (Well no.=4591) is 93.5%.

With `CCNC1=Nc2ccc(Cl)cc2C(C)(c2ccccc2)O1` (centres unmarked) [Etifoxine hydrochloride], the remaining activity at 3.75 µM in test [1] (Well no.=6081) worked out at 104%. In addition, the remaining activity at 1.25 µM in test [2] (Well no.=6081) amounted to 106%.

Regarding `CCC(C)(C)c1ccc(CC(C)CN2C[C@@H](C)O[C@@H](C)C2)cc1` (some centres unmarked) [Amorolfine], the remaining activity at 3.75 µM in test [1] (Well no.=1748) was found to be 101%. In addition, the remaining activity at 1.25 µM in test [2] (Well no.=1748) is 99%.

Take `Ic1ccc(N2CCN(Cc3c[nH]c4ncccc34)CC2)cc1` [L-750,667 trihydrochloride]: the remaining activity at 3.75 µM in test [1] (Well no.=774) was found to be 106%. In test [2] (Well no.=774), the remaining activity at 1.25 µM was 102%.

For the compound `COc1cc2c(N3CCN(C(=O)Nc4ccc(OC(C)C)cc4)CC3)ncnc2cc1OCCCN1CCCCC1` [Tandutinib], the remaining activity at 3.75 µM in test [1] (Well no.=2851) is 104%. In addition, the remaining activity at 1.25 µM in test [2] (Well no.=2851) is 104%.

As for `O=C1NC(=O)c2c1c1c3ccccc3[nH]c1n1cncc21` [Isogranulatimide], the remaining activity at 3.75 µM in test [1] (Well no.=2504) was 90.7%. For the same compound, the remaining activity at 1.25 µM in test [2] (Well no.=2504) was 94.2%.

Take `C[C@@H](O[C@H]1OCCN(Cc2nn(P(=O)(O)O)c(=O)[nH]2)[C@H]1c1ccc(F)cc1)c1cc(C(F)(F)F)cc(C(F)(F)F)c1` [Fosaprepitant (dimeglumine)]: the remaining activity at 3.75 µM in test [1] (Well no.=7483) stood at 97.1%. In addition, in test [2] (Well no.=7483), the remaining activity at 1.25 µM stood at 104%.

As to `CC(=O)SCC[N+](C)(C)C` [Acetylthiocholine chloride], the remaining activity at 3.75 µM in test [1] (Well no.=257) was 99.3%. In addition, in test [2] (Well no.=257), the remaining activity at 1.25 µM came to 97.5%.

For `NS(=O)(=O)c1ccc(N=Nc2c(O)[nH]c3ccc(Br)cc23)cc1` [Cdk2 Inhibitor II], the remaining activity at 3.75 µM in test [1] (Well no.=2383) is 103%. Also, the remaining activity at 1.25 µM in test [2] (Well no.=2383) was 102%.

Turning to `Cn1cnc2c(F)c(Nc3ccc(Br)cc3Cl)c(C(=O)NOCCO)cc21` [AZD6244], the remaining activity at 3.75 µM in test [1] (Well no.=3028) was found to be 95.3%. For the same compound, the remaining activity at 1.25 µM in test [2] (Well no.=3028) was 95.9%.

Turning to `CCCCc1oc2ccccc2c1C(=O)c1cc(I)c(OCCN(CC)CC)c(I)c1` [Amiodarone.HCl], in test [1] (Well no.=1591), the remaining activity at 3.75 µM is 103%. Moreover, the remaining activity at 1.25 µM in test [2] (Well no.=1591) was 104%.

For `C=CCN1CC[C@]23c4c5ccc(O)c4O[C@H]2C(=O)CC[C@@]3(O)[C@H]1C5` [Naloxone], the remaining activity at 3.75 µM in test [1] (Well no.=2060) worked out at 103%. Besides, in test [2] (Well no.=2060), the remaining activity at 1.25 µM is 104%.

Regarding `COC(=O)[C@H](Cc1ccc([N+](=O)[O-])cc1)NC(=O)c1cccc2ccccc12` [SB 328437], the remaining activity at 3.75 µM in test [1] (Well no.=5812) amounted to 93.4%. The remaining activity at 1.25 µM in test [2] (Well no.=5812) stood at 94.2%.

Regarding `Nc1nnc(-c2cccc(Cl)c2Cl)c(N)n1` [Lamotrigine], the remaining activity at 3.75 µM came to 101% in test [1] (Well no.=977) and 92.9% in test [1] (Well no.=1832). Also, the remaining activity at 1.25 µM in test [2] (Well no.=977) was 99.1%; in test [2] (Well no.=1832), 95.1%.

On to `OC[C@@H](O)[C@@H](O)[C@H](O)[C@@H](O)CO` [Sorbitol], for which, in test [1] (Well no.=8244), the remaining activity at 3.75 µM is 99.8%. The remaining activity at 1.25 µM in test [2] (Well no.=8244) is 100%.

As to `C=C1[C@H](CO)[C@@H](O)C[C@@H]1n1cnc2c(=O)[nH]c(N)nc21` [Entecavir hydrate], the remaining activity at 3.75 µM in test [1] (Well no.=5147) came out at 95.5%. The remaining activity at 1.25 µM in test [2] (Well no.=5147) was 93.9%.

For the compound `Nc1ccccc1NC(=O)CCCCCCC(=O)Nc1ccccc1` [BML-210], in test [1] (Well no.=5799), the remaining activity at 3.75 µM was 104%. In addition, the remaining activity at 1.25 µM in test [2] (Well no.=5799) was determined as 105%.

Turning to `CC1(C)CCC[C@](C)([C@H]2CC[C@]3(C)[C@@H]2[C@H](O)C[C@@H]2[C@@]4(C)CC[C@H](O)C(C)(C)[C@@H]4CC[C@]23C)O1` [Panaxadiol], the remaining activity at 3.75 µM in test [1] (Well no.=3739) was 99.1%. Also, the remaining activity at 1.25 µM in test [2] (Well no.=3739) stood at 100%.

Regarding `C[C@]12CCC(=O)C=C1CC[C@@H]1[C@@H]2C(=O)C[C@@]2(C)[C@H]1CC[C@]2(O)C(=O)CO` [Cortisone], the results for the remaining activity at 3.75 µM in test [1] (Well no.=381), in test [1] (Well no.=6485) and in test [1] (Well no.=7431) were 93.5%, 101% and 100%, respectively. Further, the figures for the remaining activity at 1.25 µM in test [2] (Well no.=381), in test [2] (Well no.=6485) and in test [2] (Well no.=7431) were 90.6%, 101% and 102%, respectively.

`O=C(O)CCCCC(CCSCc1ccccc1)SCc1ccccc1` (centres unmarked) [CPI-613]: the remaining activity at 3.75 µM in test [1] (Well no.=5083) came to 88.8%. The remaining activity at 1.25 µM in test [2] (Well no.=5083) stood at 97.7%.
